Data as given in patent US9657073B2, “Inhibitors of Bcl-2” (Case Western Reserve University, priority 2010, dated 2017).
Values belong to the compound of their own block, whether it stands above or below them. Where no end group is shown, it is not given here.

Columns and labels:
primary CLL cells [1] = assay: Apoptosis and cell death assays (trypan blue, propidium iodide, Hoechst nuclear morphology, Annexin V); format: cell-based, human
Source text: Lymphocytes were freshly separated from heparinized peripheral blood obtained from normal adult volunteers or adult patients with chronic lymphocytic leukemia (CLL) meeting standard diagnostic guidelines. […] We conformed to all guidelines and regulations in accordance with Internal Review Board protocols ICC2902/11-02-28 (Case Western Reserve University Cancer Center/University Hospitals of Cleveland Ireland Cancer Center). Cells were separated by centrifugation through Ficoll-Hypaque and suspended in RPMI medium supplemented with 10% fetal bovine serum, L-glutamine (2 mM), and nonessential amino acids (100 μM) at a density of 2 million cells/ml. Normal CD19+ B cells were pooled from healthy individuals between 26 and 32 years of age, in accordance with IRB-approval (as above). Mononuclear cells were separated by Ficoll-Hypaque centrifugation, and further isolation of B and T cells was achieved by magnetic separation using CD19 microbeads (Miltenyi Biotec, Bergisch Gladbach, Germany).
Apoptosis was quantified according to apoptotic nuclear morphology and by detection of phosphatidylserine exposure on the plasma membrane. […] Images were obtained using a chargecoupled device camera (Hamamatsu Photonics, Shizuoka, Japan) and digitally converted by Simple PCI software (Hamamatsu Photonics). Membrane translocation of phosphatidylserine was detected by Annexin V staining. Annexin V-positive cells were assessed by flow cytometry using an ARIA flow cytometer (Beckman Coulter, Pasadena, Calif., USA). All flow cytometry data were analyzed using FlowJo 8.8.4 for Macintosh (Treestar, Ashland, Oreg., USA). Dead cells were identified according to their inability to exclude trypan blue dye or propidium iodide. Trypan blue dye uptake into cells was detected by light microscopy using a 40× objective and quantified by counting up to 400 cells. Propidium iodide uptake was quantified by flow cytometry in association with the Annexin V measurement described above.

primary CLL cells [2] = assay: Single cell digital imaging of intracellular Ca2+ (Fura-2); format: cell-based, human
Source text: Lymphocytes were freshly separated from heparinized peripheral blood obtained from normal adult volunteers or adult patients with chronic lymphocytic leukemia (CLL) meeting standard diagnostic guidelines. Patients had either never received treatment or had received treatment over two years prior to obtaining samples. We conformed to all guidelines and regulations in accordance with Internal Review Board protocols ICC2902/11-02-28 (Case Western Reserve University Cancer Center/University Hospitals of Cleveland Ireland Cancer Center). Cells were separated by centrifugation through Ficoll-Hypaque and suspended in RPMI medium supplemented with 10% fetal bovine serum, L-glutamine (2 mM), and nonessential amino acids (100 μM) at a density of 2 million cells/ml. Normal CD19+ B cells were pooled from healthy individuals between 26 and 32 years of age, in accordance with IRB-approval (as above). Mononuclear cells were separated by Ficoll-Hypaque centrifugation, and further isolation of B and T cells was achieved by magnetic separation using CD19 microbeads (Miltenyi Biotec, Bergisch Gladbach, Germany).
(§1) Methods of Ca^2+ imaging, described in detail previously, were employed here with only minor modification. Briefly, cells adhered to poly-L-lysine-coated coverslips (35-mm coverslip dishes, MatTek Corp., Ashland, Mass.) were loaded with 1 μM Fura-2 AM for 45 min at 25° C. in extracellular buffer (ECB) (130 mM NaCl, 5 mM KCl, 1.5 mM CaCl2, 1 mM MgCl2, 25 mM Hepes, pH 7.5, 1 mg/ml BSA, and 5 mM glucose). The buffer was replaced with fresh ECB and the incubation continued for […] at 25° C. to permit de-esterification. Culture dishes were mounted on the non-heated stage of an inverted microscope (Olympus CKX41) equipped with a 20× Fluor objective. Excitation light was alternated between 340 and 380 nm by a filter wheel (Sutter Instrument Co.), with 0.8 sec and 0.2 sec exposure times respectively, and emitted light was filtered at >510 nm and collected with an intensified charge-coupled device camera (Cooke 12 bit VGA). The video signal was digitized using InCyt Im2 software (Intracellular Imaging) and subsequently processed using Microsoft Excel. To determine Rmin cells were perfused with ECB deficient in Ca^2+ and supplemented with 4 mM EGTA and 10 μM ionomycin. Rmax was obtained by perfusing cells with ECB supplemented with 4 mM CaCl2 and 10 μM ionomycin. […] In most experiments peptides were fused with the cell penetrating peptide of HIV TAT to facilitate uptake by cells. In some experiments peptides, without linkage to TAT, were delivered into cells using Chariot reagent (Active Motif) as previously described. Xestospongin C (Enzo Life Sciences International) and U73122 (Sigma), both dissolved in DMSO, were added to cells […] prior to Ca^2+ measurements.

Bfl-1 = molecular target: T1, Bfl-1 (Homo sapiens, UniProt Q16548); conditions: read-out: inhibitory concentration of 50% (IC50) for displacing BH3 peptides; cited from earlier work
T1 sequence (Q16548 1-175): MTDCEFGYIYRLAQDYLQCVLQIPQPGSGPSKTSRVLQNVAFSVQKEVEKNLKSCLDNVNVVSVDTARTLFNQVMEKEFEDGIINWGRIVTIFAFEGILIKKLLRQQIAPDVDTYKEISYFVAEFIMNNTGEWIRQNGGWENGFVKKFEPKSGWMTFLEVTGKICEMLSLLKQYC

Bcl-XL = Bcl-XL (Homo sapiens, UniProt Q07817); conditions: read-out: inhibitory concentration of 50% (IC50) for displacing BH3 peptides; cited from earlier work
Bcl-B = molecular target: T2, Bcl-B (Homo sapiens, UniProt Q9HD36); conditions: read-out: inhibitory concentration of 50% (IC50) for displacing BH3 peptides; cited from earlier work
T2 sequence (Q9HD36 1-204): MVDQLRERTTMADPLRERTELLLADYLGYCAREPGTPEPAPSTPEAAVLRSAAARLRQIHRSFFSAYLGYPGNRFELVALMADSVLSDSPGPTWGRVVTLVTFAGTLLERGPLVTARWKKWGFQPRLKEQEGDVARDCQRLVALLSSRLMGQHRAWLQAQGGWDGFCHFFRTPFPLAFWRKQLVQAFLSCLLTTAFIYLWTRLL

Jurkat cells = assay: Single cell digital imaging of intracellular Ca2+ (Fura-2); format: cell-based, human; conditions: for effect on percentage of cells displaying peptide-induced Ca2+ oscillations: xestospongin C 10 μM, U73122 0.25 μM, peptide 10 μM, 90 min, FIG. 8A
Procedure: (§2) WEHI7.2 cells were cultured in DMEM supplemented with 10% fetal calf serum, L-glutamine (2 mM), and nonessential amino acids (100 μM). Transfections of WEHI7.2 cells with expression vectors encoding wild type Bcl-2 and Bcl-2RS/GG were described previously. Jurkat cells and RS11846 cells were cultured in RPMI medium supplemented with 10% fetal bovine serum, L-glutamine (2 mM), and nonessential amino acids (100 μM). Cells were maintained in 5% carbon dioxide at high humidity.
as §1

[3] = system: Bcl-2-positive WEHI7.2 cells; assay: as above; format: cell-based, murine
Procedure: as §2
Methods of Ca^2+ imaging, described in detail previously, were employed here with only minor modification. Briefly, cells adhered to poly-L-lysine-coated coverslips (35-mm coverslip dishes, MatTek Corp., Ashland, Mass.) were loaded with 1 μM Fura-2 AM for 45 min at 25° C. in extracellular buffer (ECB) (130 mM NaCl, 5 mM KCl, 1.5 mM CaCl2, 1 mM MgCl2, 25 mM Hepes, pH 7.5, 1 mg/ml BSA, and 5 mM glucose). The buffer was replaced with fresh ECB and the incubation continued for […] at 25° C. to permit de-esterification. Culture dishes were mounted on the non-heated stage of an inverted microscope (Olympus CKX41) equipped with a 20× Fluor objective. […]

Bcl-2 = Bcl-2 (Homo sapiens, UniProt P10415); assay: Biotin-streptavidin pulldown assay; format: binding; conditions: 200 μM biotin-peptide, lysate of WEHI7.2 cells overexpressing wild type Bcl-2
Procedure: WEHI7.2 cells overexpressing wild type Bcl-2 were washed twice with PBS and incubated on ice for 30 min in 400 ul CHAPS lysis buffer (50 mM Tris-HCL pH 7.5, 100 mM NaCL, 2 mM EDTA, 1% CHAPS, 50 mM NaF, 1 mM Na3VO4, protease inhibitor cocktail, PhosSTOP). Cell lysates were centrifuged for 15 min at 20,000 g at 4 C and the supernatant (protein concentration 5 mg/ml) was continuously rotated with 200 μM biotin-Scr or biotin-IDPDD/AA, or without peptide, at 4 C for 16 hr. Streptavidin Sepharose beads ([…]) (Pierce Pull-Down Biotinylated Protein:Protein Interaction Kit, Thermo, Cat #21115) were washed three times with tris buffered saline (25 mM Tris.HCL, 0.15M NaCl, pH 7) and then added to 400 μl cell lysate, followed by rotation for 2 hours at 4 C. After this, the beads were washed four times with tris buffered saline, centrifuging for 30-60 second each time. The beads were then incubated for 3-5 min at room temperature with 50 μl elution buffer provided with the Pierce pulldown kit (above) and centrifuged at 1,250×g for 30-60 seconds. The supernatant was boiled in SDS-PAGE sample buffer for 5 min and western blotting for Bcl-2 was performed as described above.

Bcl-2-IP3R interaction = molecular target: T3, Bcl-2-IP3R interaction (Homo sapiens, UniProt P10415); assay: Co-immunoprecipitation assay; format: binding; conditions: 200 μM peptide, lysate of WEHI7.2 cells overexpressing wild type Bcl-2
T3 construct: expressed in transfected cells; host or cells: WEHI7.2 (murine T cell lymphoma); IP3R endogenous
Procedure: One hundred million WEHI7.2 cells overexpressing wild type Bcl-2 were washed twice with PBS and then lysed on ice for 30 min in 1 ml CHAPS buffer. The supernatant was prepared by centrifugation for 15 min at 20,000 g at 4° C. The supernatant (1 ml) was mixed with 100 μl 50% protein G in Tris 50 mM pH 7.5 buffer and rotated at 4 C for 2 hrs. After removing the beads, the supernatant was incubated with 200 μM peptide (Scr or IDPDD/AA, or without peptide addition, for 2 hrs at 4° C. Then hamster anti-human Bcl-2 antibody was added (final dilution 1:250) and the supernatant was rotated for 16 hrs at 4 C, followed by rotation in the presence of 50 μl protein G (50% beads) for 2 hours at 4 C. The beads were washed six times with CHAPS buffer and boiled for 5 min in SDS sample buffer followed by resolution of proteins by SDS-PAGE and analysis by western blotting for the IP3R using anti-IP3R antibody (BD Biosciences (Cat #610313) at 1:2,000 dilution and for Bcl-2 as described above.

[4] = system: IP3R-mediated Ca2+ release inhibited by BH4-Bcl-2; assay: Unidirectional 45Ca2+-flux assay in permeabilized MEF cells; format: cell-based; conditions: 40 μM IDPDD/AA, 40 μM BH4-Bcl-2 peptide, 3 μM IP3, FIG. 7
Procedure: Twelve-well clusters containing MEF cells were fixed on a thermostated plate at 30° C. on a mechanical shaker. The culture medium was aspirated, and the cells were permeabilized by incubating them for 10 min in a solution containing 120 mM KCl, 30 mM imidazole-HCl (pH 6.8), 2 mM MgCl2, 1 mM ATP, 1 mM EGTA and 20 μg/ml saponin. The non-mitochondrial Ca^2+ stores were then loaded for 45 min in 120 mM KCl, 30 mM imidazole-HCl (pH 6.8), 5 mM MgCl2, 5 mM ATP, 0.44 mM EGTA, 10 mM NaN3 and 150 nM free ^45Ca^2+ (28 μCi/ml). Then, 1 ml of efflux medium containing 120 mM KCl, 30 mM imidazole-HCl (pH 6.8) and 1 mM EGTA was added and replaced every 2 min IP3 (3 μM) was added for 2 min after 10 min of efflux. BH4-Bcl2 peptide (40 μM), in the presence or not of IDPDD/AA peptide (40 μM), was added from 4 min before IP3 to 2 min after IP3. At the end of the experiment, all 45Ca^2+ remaining in the stores was released by incubation with 1 ml of a 2% (w/v) sodium dodecyl sulfate solution for 30 min Ca^2+ release was plotted as fractional loss (%/2 min) as a function of time, as previously described.

[5] = system: Bcl-2-positive WEHI7.2 cells; conditions: data not shown

T3 sequence (P10415 whole entry): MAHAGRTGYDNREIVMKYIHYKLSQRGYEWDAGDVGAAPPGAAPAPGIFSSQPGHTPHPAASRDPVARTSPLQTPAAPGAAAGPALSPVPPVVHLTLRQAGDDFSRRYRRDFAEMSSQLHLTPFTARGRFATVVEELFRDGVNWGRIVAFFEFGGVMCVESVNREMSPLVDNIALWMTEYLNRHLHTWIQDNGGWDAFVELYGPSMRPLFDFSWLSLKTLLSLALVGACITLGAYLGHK
Chain of Bcl-2 (P10415 whole entry, species assumed): as the sequence (P10415 whole entry) above
Chain of Bcl-XL (Q07817 whole entry, species assumed): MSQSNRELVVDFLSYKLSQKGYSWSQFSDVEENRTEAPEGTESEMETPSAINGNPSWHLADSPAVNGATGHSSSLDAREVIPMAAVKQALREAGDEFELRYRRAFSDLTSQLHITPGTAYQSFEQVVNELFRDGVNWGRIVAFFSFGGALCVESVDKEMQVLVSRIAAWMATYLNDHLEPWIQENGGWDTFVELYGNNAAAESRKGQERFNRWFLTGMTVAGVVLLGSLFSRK

Compound: CN(C)CCC(CSc1ccccc1)Nc1ccc(S(=O)(=O)NC(=O)c2ccc(N3CCN(Cc4ccccc4-c4ccc(Cl)cc4)CC3)cc2)cc1[N+](=O)[O-] (centres unmarked) [ABT-737, N-[4-[4-(4′-Chloro-biphenyl-2-ylmethyl)-piperazin-1-yl]-benzoyl)-4-(3-dimethylamino-1-phenylsulfanylmethyl-propylamino)-3-nitro-benzenesulfonamide, reference compound]
death of CLL cells (primary CLL cells [1]; 2 μM, 24 hr, trypan blue dye uptake, FIG. 11B): 40%
induction of Ca2+ elevation (primary CLL cells [2]; 2 μM ABT-737, FIG. 11A): did not induce Ca^2+ elevation

Compound: Cc1cc2c(C(C)C)c(O)c(O)c(C=O)c2c(O)c1-c1c(C)cc2c(C(C)C)c(O)c(O)c(C=O)c2c1O [Gossypol, 1,6,7,1′,6′,7′-Hexahydroxy-5,5′-diisopropyl-3,3′-dimethyl-[2,2′]binaphthalenyl-8,8′-dicarbaldehyde]
IC50 (Bfl-1): ~500 nM
IC50 (Bcl-XL): ~500 nM
IC50 (Bcl-B): ~500 nM

Compound: COc1ccc2c(c1)CC[C@@H]1[C@@H]2CC[C@]2(C)[C@@H](NCCCCCCN3C(=O)C=CC3=O)CC[C@@H]12 [U73122]
effect on percentage of cells displaying peptide-induced Ca2+ oscillations (Jurkat cells): reduced

Compound: C1CCC[C@H]2CCCN3CC[C@@H](CCCCCC[C@@H]4CCCN5CC[C@@H](CC1)O[C@@H]45)O[C@@H]23 [xestospongin C, reference compound]
effect on apoptosis induction by TAT-IDPDD/AA (primary CLL cells [1]; CLL cells): inhibited
effect on percentage of cells displaying peptide-induced Ca2+ oscillations (Jurkat cells): reduced
effect on Ca2+ responses to TAT-IDP and TAT-IDPDD/AA (primary CLL cells [2]; CLL cells): inhibited

Compound: IDP: synthetic IP3R-derived peptide, 20 amino acid sequence within the Bcl-2-binding site on the IP3R (RKKRRQRRRGGNVYTEIKCNSLLPLDDIVRV; listed as Homo sapiens)
number of Ca2+ spikes observed per cell ([3]; 2 μM peptide, 70 min recordings, FIG. 2): very infrequent
induction of Ca2+ elevations ([3]; peptide introduced by Chariot peptide uptake reagent, data not shown): induced Ca^2+ elevations

interaction with Bcl-2 (Bcl-2): documented
disruption of Bcl-2-IP3R interaction (Bcl-2-IP3R interaction): confirmed
Compound: NVYTEIKCNSLLPLAAIVRV (listed as Homo sapiens) [IDPDD/AA, IDP with DD/AA substitution, without TAT]
effect on Bcl-2-imposed inhibition of IP3-induced 45Ca2+ efflux from the ER [4]: reversed

Compound: RKKRRQRRRGGNVYTEIKCNSLLPLDDIVRV [TAT-IDP]
cell viability following treatment [5]: not lost

Compound: pepstatin A
effect of pretreatment on amplitude of peptide-induced Ca2+ elevations (Jurkat cells; TAT-IDP in Jurkat cells): significant enhancement
effect of pretreatment on percentage of cells displaying peptide-induced calcium elevations (Jurkat cells; TAT-IDP in Jurkat cells): slight, but not significant, increase
